Laboratory results as given in patent publication US20240115512A1, “PROCESS FOR PREPARING NANOFORMULATION FOR DELIVERY OF BERBAMINE” (priority 2021, published 2024).
In brackets after ≈: the same amount, converted by molar mass.

Key:
Experiment in all cases: MIC by serial dilution method
Assay type in all cases: cell-based
[1] = test system: Staphylococcus epidermidis (clinical isolate)
Experimental: (§1) Berbamine was tested for a panel of bacterial strains including Pseudomonas aeruginosa (ATCC 27853), Acinetobacter baumannii (ATCC 19606), Staphylococcus aureus (ATCC 29213) and clinical isolates of Klebsiella pneumoniae, Staphylococcus epidermidis, Staphylococcus hemolyticus and Burkholderia cepacia complex using serial dilution method. Ceftazidime was used as the standard antibiotic for validating the protocol.

[2] = test system: Staphylococcus aureus (ATCC 29213); conditions: ATCC29213
Experimental: as §1

[3] = test system: Klebsiella pneumoniae (clinical isolate)
Experimental: as §1

[4] = test system: Acinetobacter baumannii (ATCC 19606); conditions: ATCC19606
Experimental: as §1

[5] = test system: Staphylococcus hemolyticus (clinical isolate)
Experimental: as §1

`COc1cc2c3cc1Oc1c(OC)c(OC)cc4c1[C@@H](Cc1ccc(O)c(c1)Oc1ccc(cc1)C[C@@H]3N(C)CC2)N(C)CC4` [berbamine] gave an MIC [1] of 128 µg/mL (≈ 210 µM), an MIC [2] of 256 µg/mL (≈ 421 µM) and an MIC [3] greater than 4100 µg/mL. For the same compound, the MIC [4] was 256 µg/mL (≈ 421 µM) and the MIC [5] was 128 µg/mL (≈ 210 µM).
